The assay concerns Plasmodium falciparum. In words: Antiplasmodial activity against Plasmodium falciparum 3D7 late ring stages and early trophozoites forms infected in human erythrocytes assessed as parasite growth inhibition by LDH release assay. It counts as functional, organism-based. On the technique in general: LDH leaks from cells whose membrane has failed.

Our source for the IC50 values is ChEMBL document CHEMBL3352318, “MDN-0104, an antiplasmodial betaine lipid from Heterospora chenopodii” (J Nat Prod, 2014).

One may read the IC50 as the concentration that inhibits the measured activity by half.

For the compound `CCCCCCCCCCC/C=C(\C)C(=O)C(C)(C)C(=O)OC[C@@H](O)COCC[C@@H](C(=O)[O-])[N+](C)(C)C`, the IC50 was 7 µM.
